Laboratory results from PMC10112521, “High-throughput AR dimerization assay identifies androgen disrupting chemicals and metabolites” (Frontiers in Toxicology, 2023).
Read-outs that look alike come from different tables or passages of the source.

How the values were obtained:
[1] = tested on: AR; set-up: method as in Kleinstreuer et al., 2017; settings: 2017, cited from earlier work; for Antagonist reference: AR antagonist reference class ref Kleinstreuer et al.; for Agonist reference: AR agonist reference class ref Kleinstreuer et al.
[2] = tested on: AR2 cells (HepG2-AR2); assay: Alamar Blue (resazurin) post hoc cell viability / cytotoxicity assay in AR2 cells; settings: spid Viability, sheet antagonist_fits; for hill_tp (Hill model top): 0 where win_model is Constant
Description: (§1) For antagonist mode and cytotoxicity data, well-level normalized response (resp) was calculated as: resp=100 * RLU−bval/pval−bval where pval is the median RLU value of the MEC positive control wells (minimum four wells).

[3] = tested on: human AR (LBD and AF2 domains) and the RID of human SRC2; set-up: method as in U.S. EPA, 2002b; settings: activity call, antagonist mode, 2 h; invitroDBv3.4 ref U.S. EPA, 2002b; cited from earlier work
[4] = tested on: full-length human AR and the receptor interacting domain (RID) of SRC1; set-up: method as in U.S. EPA, 2002b; settings: activity call, single protocol detects agonists and antagonists, invitroDBv3.4 ref U.S. EPA, 2002b, cited from earlier work
[5] = target: T1, human AR (Homo sapiens, UniProt P10275); assay: AR2 assay, antagonist mode: disruption of R1881 (10 nM)-induced AR homodimerization in HepG2-AR2 cells; assay type: cell-based; settings: for AR2 antagonist: activity call, antagonist mode, 18 h
T1 sequence (P10275 1-920) 1: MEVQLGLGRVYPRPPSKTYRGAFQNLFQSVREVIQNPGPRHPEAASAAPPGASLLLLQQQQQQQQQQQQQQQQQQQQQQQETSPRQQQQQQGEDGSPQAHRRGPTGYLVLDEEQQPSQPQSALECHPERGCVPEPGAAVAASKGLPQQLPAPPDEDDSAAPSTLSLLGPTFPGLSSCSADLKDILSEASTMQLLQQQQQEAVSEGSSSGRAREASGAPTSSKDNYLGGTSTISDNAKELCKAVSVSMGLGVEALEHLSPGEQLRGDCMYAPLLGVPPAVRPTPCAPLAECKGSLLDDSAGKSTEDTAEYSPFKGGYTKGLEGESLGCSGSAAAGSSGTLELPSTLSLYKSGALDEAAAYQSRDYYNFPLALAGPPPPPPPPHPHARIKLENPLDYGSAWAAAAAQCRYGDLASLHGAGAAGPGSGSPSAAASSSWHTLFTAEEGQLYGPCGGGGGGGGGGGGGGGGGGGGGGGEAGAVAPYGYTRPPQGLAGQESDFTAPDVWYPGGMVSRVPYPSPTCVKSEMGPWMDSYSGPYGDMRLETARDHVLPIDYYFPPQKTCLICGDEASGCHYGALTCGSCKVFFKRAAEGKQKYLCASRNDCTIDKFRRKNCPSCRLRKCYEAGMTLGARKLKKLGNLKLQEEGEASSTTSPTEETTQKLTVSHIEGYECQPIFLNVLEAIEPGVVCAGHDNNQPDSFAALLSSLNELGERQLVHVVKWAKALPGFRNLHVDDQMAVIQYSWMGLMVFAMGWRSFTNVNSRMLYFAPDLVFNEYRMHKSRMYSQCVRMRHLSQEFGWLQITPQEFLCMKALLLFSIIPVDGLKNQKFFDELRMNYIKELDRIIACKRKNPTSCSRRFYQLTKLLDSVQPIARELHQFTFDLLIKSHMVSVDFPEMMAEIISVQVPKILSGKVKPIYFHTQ
T1 sequence (P10275 1-920) 2: T1 sequence (P10275 1-920) 1

[6] = target: T1, human AR; assay: cell-based; set-up: species or system AR2 cells (HepG2-AR2); NanoLuc complementation AR homodimerization, antagonist mode, loss of agonist-induced luminescence, AC50 by Hill fit; settings: hill_ga, antagonist mode, 10 nM agonist stimulus, 18 h, no CYP expressed
[7] = target: T1, human AR; assay: AR2 assay, agonist mode: ligand-dependent AR homodimerization (NanoBiT luciferase complementation) in stable HepG2-AR2 cells; assay type: cell-based; settings: for hill_gw / hill_tp / max_med / win_model: sheet agonist_fits; for hill_gw: Hill model gain slope (Hill coefficient); for hill_gw / hill_tp: 0 given where win_model is Constant; for hill_tp: Hill model top (efficacy); for max_med: maximum median response; for win_model: winning concentration-response model (Constant, Hill, Gain-Loss); for AR2 agonist: activity call, agonist mode;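 as to hill tp: Log2 fold change of luminescence over DMSO vehicle wells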;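 as to max med: Log2 fold change of luminescence over DMSO vehicle wells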
[8] = target: T1, human AR; assay: cell-based; set-up: species or system AR2 cells (HepG2-AR2); NanoLuc complementation AR homodimerization, agonist mode, luminescence gain, AC50 by Hill fit; settings: hill_ga, spid=Bgal; agonist mode, 18 h, no CYP expressed
[9] = tested on: human AR (LBD and AF2 domains) and the RID of human SRC2; set-up: method as in U.S. EPA, 2002b; settings: activity call, agonist mode, 2 h; invitroDBv3.4 ref U.S. EPA, 2002b; cited from earlier work
[10] = tested on: AR2 cells (HepG2-AR2)
Description: as §1

[11] = spid AR_antagonist, sheet antagonist_fits
[12] = spid AR_antagonist, sheet antagonist_fits, 0 where win_model is Constant
[13] = spid AR_antagonist, sheet antagonist_fits, Hill fit parameter

Row | Compound | Antagonist reference [1] | Antagonist reference ([1]; Supplementary Table S1) | max_med (maximum median response) [2] | hill_tp (Hill model top) [2] | UPitt antagonist [3] | OT 8 hr [4] | OT 16 hr [4] | AR2 antagonist [5] | win_model (winning concentration-response model) [5, 11] | hill_gw (Hill model slope) [5, 12] | AC50 ([6]; spid=Bgal) [µM] | AC50 ([6]; spid=No_RNA) [µM] | hill_tp [7] | max_med [7] | win_model [7] | hill_tp (Hill model top) [5] | max_med (maximum median response) [5] | hill_ga (Hill model log AC50) [10] | other results
1 | CC(O)(CS(=O)(=O)c1ccc(F)cc1)C(=O)Nc1ccc(C#N)c(C(F)(F)F)c1 (stereo not shown) [Bicalutamide] | Strong | Strong | 19.8696 | 21.5759 | 1 | 1 | 1 |  |  |  |  |  |  |  |  |  |  |  | hill_tp (Hill model top) ([2]; listed as BICAL): 57.2356; max_med (maximum median response) ([2]; listed as BICAL): 25.4903
2 | CC(C)(c1ccc(O)cc1)c1ccc(O)cc1 [Bisphenol A] | Moderate | Moderate | 20.3748 | 26.326 | 1 | 0 | 1 | 1 | Hill | 1.098 | 13.1 | 15.9 | 0.2654 | 0.1199 | Gain-Loss |  |  |  | max_med (maximum median response) [5, 11]: 101.007; hill_tp (Hill model top) [5, 12]: 118.275; activity call in agonist mode ([7]; 128-chemical evaluation, 18 h, active = maximal median response >5*bmad): tested negative; hill_gw [7]: 0.5365; AC50 [8]: > 99.9 µM
3 | COC(=O)Nc1nc2ccccc2[nH]1 [Carbendazim] |  |  | 17.1488 | 11.742 |  | 0 | 1 |  | Hill | 8 |  |  | 0 | 0.02367 | Constant | 18.0536 | 16.7598 | 1.227 | Agonist reference [1]: Inactive; UPitt agonist [9]: 0; AR2 agonist ([7]; 18 h): 0
4 | CC#C[C@]1(O)CC[C@H]2[C@@H]3CCC4=CC(=O)CCC4=C3[C@@H](c3ccc(N(C)C)cc3)C[C@@]21C [Mifepristone] | Strong | Strong | 9.555 | 0 | 1 | 1 | 1 |  |  |  |  |  |  |  |  |  |  |  | 
5 | CC1(C)C(C=C(Cl)Cl)C1C(=O)OCc1cccc(Oc2ccccc2)c1 (stereo not shown) [Permethrin] |  |  | 5.481 | 0 |  | 0 | 0 |  | Hill | 1.786 | 27.5 | 47.3 | 0 | 0.006626 | Constant | 63.3496 | 53.132 | 0 | Agonist reference [1]: Inactive; UPitt agonist [9]: 0; AR2 agonist ([7]; 18 h): 0
6 | CC12CC1(C)C(=O)N(c1cc(Cl)cc(Cl)c1)C2=O (stereo not shown) [Procymidone] | Weak | Weak | 14.9874 | 19.1789 | 1 | 0 | 0 | 1 | Hill | 0.938 | 3.84 | 4.23 | 0.2332 | 0.2214 | Hill |  | 95.0019 | -1.506 | hill_gw [7]: 8; AC50 [8]: > 99.9 µM
7 | CCCC1COC(Cn2cncn2)(c2ccc(Cl)cc2Cl)O1 (stereo not shown) [Propiconazole] | Weak | Weak | 5.206 | 0 | 1 | 1 | 1 | 1 | Hill | 1.532 | 33.8 | 32.2 | 0 | 0.05395 | Constant | 116.132 | 96.3637 |  | 
8 | C[C@H]1CCCC(=O)CCC/C=C/c2cc(O)cc(O)c2C(=O)O1 [Zearalenone] | Weak | Weak | 41.4682 |  | 1 | 0 | 0 | 1 |  |  | 9.73 | 7.46 | 0 | 0.2969 | Constant |  |  |  | max_med (maximum median response) [5, 11]: 103.904; win_model (winning curve-fit model) ([5]; spid AR_antagonist, sheet antagonist_fits, Constant = no concentration response): Hill; hill_gw (Hill model slope/Hill coefficient) [5, 13]: 2.042; hill_tp (Hill model top of curve) [5, 13]: 105.112; hill_tp (Hill model top of curve) ([2]; Hill fit parameter): 49.8014
